Data published in patent US20190177440A1, “COMPOUND OR SALT THEREOF, ANTI-INFLAMMATORY AGENT, ANTI-CANCER AGENT AGAINST LUNG CANCER, METHOD OF PRODUCING COMPOUND OR SALTS THEREOF, METHOD OF TREATING INFLAMMATORY DISEASES AND METHOD OF TREATING LUNG CANCER” (TFK CO., LTD., priority 2016, published 2019).

Legend:
TNF-α = TNF-α production in RAW264.7 cells stimulated with LPSp (Example 7); format: cell-based, mouse; conditions: final 1 ng/mL to 10 μg/mL, then LPSp 100 ng/mL, FIG. 7
Experimental: The culture medium was added to mouse macrophage cells (RAW264.7, ATCC) to prepare solutions at concentrations of 4×10^5 cells/mL. The solutions were seeded in 96-well flat-bottomed plates in 100 μL portions, i.e., 4×10^4 cells/100 μL/well. After seeding, the cells were incubated at 37° C. in 5% CO2 for 2 hours until they adhered to the bottoms of the wells and extended. Next, 100 μL of the test solution was added to each well. After adding the test solution, the cells were incubated at 37° C. in a 5% CO2 for 24 hours. After the incubation, the culture supernatant of the wells was removed, 150 μl of the above-mentioned culture solution was newly added (hereinafter, this step is referred to as a “culture solution adding step”), and the wells were incubated at 37° C. in a 5% CO2 for 24 hours.
After incubation, 50 μl of culture supernatant from each well was collected, transferred to each well of new 96-well flat-bottom plates, and absorbance was measured using mouse TNF a assay kit (manufactured by Biolegend) and converted to TNF-α concentrations.
In this example, an experiment was carried out in the same manner as in Example 6 except for the following two points, and 50 μL of culture supernatant of each well was collected and TNF-α concentration was measured. That is, in this example, a total of five test solutions were used as the test solution, in which the concentration of the purified product was 20 μg/mL, 2 μg/mL, 200 ng/mL, 20 ng/mL, and 2 ng/mL. Since the five test solutions are diluted twice when added to the cells, the final concentrations of the purified products are 10 μg/mL, 1 μg/mL, 100 ng/mL, 10 ng/mL, and 1 ng/mL, respectively. In this example, in the culture medium adding step in Example 5, 150 μL of the culture medium containing LPSp at a final concentration of 100 ng/mL was added instead of 150 μL of the culture medium.

[1] = test system: Lewis lung carcinoma: 3LL; test: Tumor volume in mice bearing Lewis lung carcinoma 3LL (Example 9); format: in vivo, mouse; conditions: Example 9-1: ip 0.5 mg/10 mL/kg once, without CY; days 3, 6, 9; FIG. 9
Experimental: (1) Preparation of Cancer-Bearing Mice Suspensions of Lewis lung cancer cell lines (Lewis lung carcinoma: 3LL, obtained from JCRB cell banks) were subcutaneously administered to the ventral region of five male C57 BL/6J mice aged 6 weeks so that the cancer cell dose per animal was 2.5×10^5 cells per 200 μL. Two weeks after dosing, tumors were excised from one of the mice and washed on dishes with PBS (−). Next, the washed tumor was made into a finely divided tumor fragment of about 2 mm square, the tumor fragment was transferred to a 50 mL tube, 5 mL of collagenase solution was added, and the mixture was warmed at 37° C. for 10 minutes. Thereafter, the collagenase solution containing the tumor fragments was pipetted into finer tumor fragments, and the collagenase solution containing the tumor fragments was transferred to another 50 mL tube and cooled on ice. After cooling, an additional 5 mL of collagenase solution was added to the collagenase solution containing the tumor fragments, and the same procedure was repeated 5 times until no tumor fragments could be observed. Thereafter, the collagenase solution containing the tumor fragment was filtered through a cell strainer (mesh size: 70 μm, manufactured by BD Corporation), and the filtrate was centrifuged at 1200 rpm for 7 minutes. After centrifugation, the supernatant was removed, 20 ml of […] medium (serum-free) was added to the precipitate, and after suspension by inversion mixing, the precipitate was centrifuged at 1200 rpm for 7 minutes. After centrifugation, the supernatant was removed, and the precipitate was washed twice with PBS (−), and then 10 mL of PBS (−) was added and suspended to prepare a cancer cell suspension. The cancer cell suspension was subcutaneously administered to the ventral portion of the 12 mice so that the cancer cell dose per animal was 2.5×10^5 cells per 200 μL. Fourteen days after dosing, tumors were excised from 10 of the mice and cancer cell suspensions were prepared in the same manner as described above. The cancer cell suspensions were administered intracutaneously into the abdomen of the 108 mice so that the cancer cell dose per animal was 2.5×10^5 cells per 50 μL. After administration, mice were divided into six groups (n=6 in each group) as shown below at the time point when the tumor size of each mouse became about 5 mm in diameter (day 8 after administration). […]
The major and minor diameters of the tumors were measured using calipers on Days 3, 6 and 9 on the day of grouping as day 0, and the tumor volume was calculated based on these measurements. […]

## CCCCCC/C=C/CCCCCC(=O)OC(CCCCCCCCCCC)CC(=O)NC1C(OCC2OC(OP(=O)(O)O)C(NC(=O)CC(=O)CCCCCCCCCCC)C(OC(=O)CC(O)CCCCCCC)C2O)OC(COC2(C(=O)O)CC(OC3(C(=O)O)CC(O)C(OC4OC(C(=O)O)C(OC5OC(CO)C(O)C(O)C5O)C(O)C4O)C(C(O)CO)O3)C(OC3OC(CO)C(O)C(O)C3O)C(C(O)CO)O2)C(OP(=O)(O)O)C1OC(=O)CC(O)CCCCCCC (centres unmarked) [Formula (B2)]
TNF-α
  TNF-α concentration in culture supernatant: Equivalent results were obtained
[1]
  tumor volume versus saline group: equivalent results

## CCCCCC/C=C/CCCCCC(=O)OC(CCCCCCCCCCC)CC(=O)NC1C(OCC2OC(OP(=O)(O)O)C(NC(=O)CC(=O)CCCCCCCCCCC)C(OC(=O)CC(O)CCCCCCC)C2O)OC(COC2(C(=O)O)CC(OC3(C(=O)O)CC(OC4OC(C(=O)O)C(OC5OC(CO)C(O)C(O)C5O)C(O)C4O)C(O)C(C(O)CO)O3)C(OC3OC(COP(=O)(O)O)C(OC4OC(CO)C(O)C(O)C4O)C(O)C3O)C(C(O)CO)O2)C(OP(=O)(O)O)C1OC(=O)CC(O)CCCCCCC (centres unmarked) [Formula (A1)]
TNF-α
  TNF-α concentration in culture supernatant: Equivalent results were obtained
[1]
  tumor volume versus saline group: equivalent results

## CCCCCC/C=C/CCCCCC(=O)OC(CCCCCCCCCCC)CC(=O)NC1C(OCC2OC(OP(=O)(O)O)C(NC(=O)CC(=O)CCCCCCCCCCC)C(OC(=O)CC(O)CCCCCCC)C2O)OC(COC2(C(=O)O)CC(OC3(C(=O)O)CC(OC4OC(C(=O)O)C(OC5OC(CO)C(O)C(O)C5O)C(O)C4O)C(O)C(C(O)CO)O3)C(OC3OC(CO)C(O)C(O)C3O)C(C(O)CO)O2)C(OP(=O)(O)O)C1OC(=O)CC(O)CCCCCCC (centres unmarked) [Formula (A2)]
TNF-α
  TNF-α concentration in culture supernatant: Equivalent results were obtained
[1]
  tumor volume versus saline group: equivalent results

## CCCCCC/C=C/CCCCCC(=O)OC(CCCCCCCCCCC)CC(=O)NC1C(OCC2OC(OP(=O)(O)O)C(NC(=O)CC(=O)CCCCCCCCCCC)C(OC(=O)CC(O)CCCCCCC)C2O)OC(COC2(C(=O)O)CC(OC3(C(=O)O)CC(O)C(OC4OC(C(=O)O)C(OC5OC(CO)C(O)C(O)C5O)C(O)C4O)C(C(O)CO)O3)C(OC3OC(COP(=O)(O)O)C(OC4OC(CO)C(O)C(O)C4O)C(O)C3O)C(C(O)CO)O2)C(OP(=O)(O)O)C1OC(=O)CC(O)CCCCCCC (centres unmarked) [Formula (B1)]
TNF-α
  TNF-α concentration in culture supernatant: Equivalent results were obtained
[1]
  tumor volume versus saline group: equivalent results
